Assay: xn = mol fraction of the nth substance listed
Conditions: 313.15 K; for surface tension liquid-gas: Capillary rise; for viscosity / mass density: 101 kPa, Liquid; for viscosity: Falling or rolling sphere viscometry; for mass density: Vibrating tube method

CC(=O)OCc1ccccc1 [benzyl ethanoate] + OCc1ccccc1
Conditions	mass density [kg/m3]	surface tension liquid-gas [mN/m]	viscosity [mPa·s]
x1 = 0.05	1030.21	–	3.18
x1 = 0.1001	1030.76	37	3.006
x1 = 0.1502	1031.27	–	2.848
x1 = 0.2001	1031.72	36.8	2.687
x1 = 0.25	1032.23	–	2.536
x1 = 0.3	1032.67	36.4	2.396
x1 = 0.3498	1033.08	–	2.265
x1 = 0.4001	1033.48	36	2.154
x1 = 0.45	1033.86	–	2.056
x1 = 0.5	1034.24	35.6	1.966
x1 = 0.5501	1034.6	–	1.903
x1 = 0.6001	1034.94	35.2	1.832
x1 = 0.65	1035.27	–	1.774
x1 = 0.6999	1035.57	34.8	1.728
x1 = 0.7502	1035.87	–	1.684
x1 = 0.8	1036.18	34.6	1.646
x1 = 0.85	1036.48	–	1.613
x1 = 0.9	1036.79	34.4	1.572
x1 = 0.95	1037.11	–	1.524
x1 = 1	1037.42	34.3	1.474

From the NIST ThermoML archive (doi:10.1021/je201009c)
